Experimental data from patent publication US20200031848A1, “AR-V7 INHIBITORS” (Hoffmann-La Roche Inc., priority 2016, published 2020).

What was measured:
[1] = biological target: T1, AR transcriptional activity (Homo sapiens, UniProt P10275, T878A); assay: eGFP cellular AR transcription assay; assay type: cell-based; details: for inhibition at 1 µM: read-out: eGFP % inhib. at 1 μM
T1 construct: The LNCaP eGFP cell line was stably transfected with an androgen-responsive probasin-derived promoter fused to an eGFP reporter; endogenous in cells; host or cells: LNCaP eGFP (LN-ARR2PB-eGFP) human prostate cancer cells
T1 sequence (P10275 1-920 T878A): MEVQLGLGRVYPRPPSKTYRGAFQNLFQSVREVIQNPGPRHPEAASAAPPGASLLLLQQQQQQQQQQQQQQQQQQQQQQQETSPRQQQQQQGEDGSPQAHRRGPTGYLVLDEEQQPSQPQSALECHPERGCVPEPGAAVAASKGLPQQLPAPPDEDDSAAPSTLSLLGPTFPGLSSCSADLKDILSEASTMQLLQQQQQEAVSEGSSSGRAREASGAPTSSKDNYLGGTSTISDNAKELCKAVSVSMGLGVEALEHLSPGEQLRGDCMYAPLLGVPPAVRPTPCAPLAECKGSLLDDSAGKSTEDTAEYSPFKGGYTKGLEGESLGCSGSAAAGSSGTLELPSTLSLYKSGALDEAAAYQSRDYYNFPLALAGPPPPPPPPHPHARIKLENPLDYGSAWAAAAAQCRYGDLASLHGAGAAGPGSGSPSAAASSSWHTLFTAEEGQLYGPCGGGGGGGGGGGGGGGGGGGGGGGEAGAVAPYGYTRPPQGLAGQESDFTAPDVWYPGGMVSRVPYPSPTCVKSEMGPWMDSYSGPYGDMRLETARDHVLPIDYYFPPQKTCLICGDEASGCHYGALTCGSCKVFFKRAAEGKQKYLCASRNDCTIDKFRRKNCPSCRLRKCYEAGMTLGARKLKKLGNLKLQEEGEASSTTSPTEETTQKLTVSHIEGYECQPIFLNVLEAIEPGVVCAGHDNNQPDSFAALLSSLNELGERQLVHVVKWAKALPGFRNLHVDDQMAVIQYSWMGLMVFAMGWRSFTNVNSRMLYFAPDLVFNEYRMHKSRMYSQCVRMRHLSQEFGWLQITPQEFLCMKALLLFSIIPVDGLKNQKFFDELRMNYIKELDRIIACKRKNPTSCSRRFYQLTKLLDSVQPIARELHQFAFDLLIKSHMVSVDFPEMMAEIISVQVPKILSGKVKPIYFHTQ
Description: The DNA-binding domain is an attractive target for inhibition of AR dimerization and/or DNA binding. In silico computational drug discovery methods were used to conduct a virtual screen of >3 million purchasable lead-like compounds from the ZINC database (Irwin, J. et al.^11) to identify potential DBD binders. The in silico methods included large-scale docking, in-site rescoring and consensus voting procedures. It will be understood by a person of skill that COOH and NR2 may include the corresponding ions, for example carboxylate ions and ammonium ions, respectively. Alternatively, where the ions are shown, a person of skill in the art will appreciate that the counter ion may also be present. Furthermore, it will be appreciated by a person of skill that other moieties may include the corresponding ions, and where the ions are shown, a person of skill in the art will appreciate that the counter ion may also be present. […] Where the % inhibition, eGFP IC50 or the PSA IC50 has no value given, this may be because no measurement was taken or the value was not calculated, in the case of the % inhibition. In vitro identification of AR inhibitors targeting AR DBD The selected compounds were assessed with a non-destructive eGFP assay that quantifies levels of AR transcriptional activity, were identified (table below).
(§1) 1. Cell Culture: LNCaP and PC3 human prostate cancer cells were obtained from American Type Culture Collection (ATCC, Manassas, Va.) and grown in RPMI 1640 medium supplemented with 5% fetal bovine serum (FBS) (Invitrogen). The LNCaP eGFP cell line was stably transfected with an androgen-responsive probasin-derived promoter fused to an eGFP reporter (LN-ARR2PB-eGFP) using a lentiviral approach, and were grown in phenol-red-free RPMI 1640 supplemented with 5% CSS. In-house developed MDV3100-resistant LNCaP cells were cultured in RPMI 1640 supplemented with 5% FBS and 10 μM MDV3100. All cells were maintained at 37° C. in 5% CO2.
2. eGFP cellular AR transcription assay: The AR transcriptional activity was assayed as previously described (Tavassoli, P., et al.^12).

[2] = system: PSA levels secreted into the media; assay: Prostate-specific antigen (PSA) assay; assay type: cell-based; details: Homo sapiens, 72 h; in parallel to the eGFP assay, same plates, 3 days
Protocol: as §1
3. Prostate-specific antigen (PSA) assay: The evaluation of PSA levels secreted into the media was performed in parallel to the eGFP assay using the same plates. After cells were incubated for 3 days, 150 μl of the media was taken from each well, and added to 150 μl of PBS. PSA levels were then evaluated using Cobas e 411 analyzer instrument (Roche Diagnostics) according to the manufacturer's instructions.

in vitro = details: human, microsomes; for microsomal CLint at 2 μM: pH 7.4
Protocol: Microsomal incubations were carried out in 96-well plates in 5 aliquots of 40 μL each (one for each time point). […] Control incubations were performed replacing the NADPH-cofactor system with PBS. […] Incubations were performed in duplicates. Five time points over 40 minutes had been analyzed. The reactions were stopped by adding 12 volumes of 90% acetonitrile-water to incubation aliquots, followed by protein sedimentation by centrifuging at 5500 rpm for 5 minutes. Supernatants were analyzed using the HPLC system coupled with tandem mass spectrometer. The elimination constant (kel), half-life (t1/2) and intrinsic clearance (Clint) were determined in plot of […] versus time, using linear regression analysis: […]

Question: What does the source list for `CC1(C)CN(c2nc(-n3cc(Br)nc3Br)cs2)CCO1` [Example 1, 4-[4-(2,4-dibromoimidazol-1-yl)thiazol-2-yl]-2,2-dimethyl-morpholine]?
Answer: IC50 ([1]; LNCaP eGFP cell line): 117 nM; IC50 [2]: 95 nM

Question: Which results are given for `Brc1cn(-c2csc(N3[C@@H]4CCC[C@H]3COC4)n2)c(Br)n1` [Example 2, (1S,5R)-9-[4-(2,4-dibromoimidazol-1-yl)thiazol-2-yl]-3-oxa-9-azabicyclo[3.3.1]nonane]?
Answer: IC50 ([1]; LNCaP eGFP cell line): 135 nM; IC50 [2]: 74 nM

Question: What does the source list for `Brc1ncn(-c2csc(N3C[C@H]4CC[C@@H](C3)O4)n2)c1Br` [Example 3, (1R,5S)-3-[4-(4,5-dibromoimidazol-1-yl)thiazol-2-yl]-8-oxa-3-azabicyclo[3.2.1]octane]?
Answer: IC50 ([1]; LNCaP eGFP cell line): 182 nM; IC50 [2]: 1060 nM

Question: Which results are given for `Brc1ncn(-c2csc(N3[C@@H]4CCC[C@H]3COC4)n2)c1Br` [Example 4, (1S,5R)-9-[4-(4,5-dibromoimidazol-1-yl)thiazol-2-yl]-3-oxa-9-azabicyclo[3.3.1]nonane]?
Answer: IC50 ([1]; LNCaP eGFP cell line): 196 nM; IC50 [2]: 6 nM

Question: What does the source list for `Clc1ncn(-c2csc(N3[C@@H]4CCC[C@H]3COC4)n2)c1Br` [Example 5, (1R,5S)-9-[4-(5-bromo-4-chloro-imidazol-1-yl)thiazol-2-yl]-3-oxa-9-azabicyclo[3.3.1]nonane]?
Answer: IC50 ([1]; LNCaP eGFP cell line): 268 nM; IC50 [2]: 181 nM

Question: With `Clc1ncn(-c2csc(N3[C@@H]4CC[C@H]3COC4)n2)c1Br` [Example 6, (1R,5S)-8-[4-(5-bromo-4-chloro-imidazol-1-yl)thiazol-2-yl]-3-oxa-8-azabicyclo[3.2.1]octane] as the molecule, how does the IC50 ([1]; LNCaP eGFP cell line) read?
Answer: 404 nM

Question: What about the IC50 [2] of the same molecule?
Answer: 377 nM

Question: For `Brc1ncn(-c2csc(N3[C@@H]4CC[C@H]3COC4)n2)c1Br` [Example 7, (1R,5S)-8-[4-(4,5-dibromoimidazol-1-yl)thiazol-2-yl]-3-oxa-8-azabicyclo[3.2.1]octane], which IC50 ([1]; LNCaP eGFP cell line) is on record?
Answer: 458 nM

Question: And the IC50 [2]?
Answer: 385 nM

Question: Which IC50 ([1]; LNCaP eGFP cell line) does the source give for `Clc1c(Br)ncn1-c1csc(N2[C@@H]3CC[C@H]2COC3)n1` [Example 8, (1R,5S)-8-[4-(4-bromo-5-chloro-imidazol-1-yl)thiazol-2-yl]-3-oxa-8-azabicyclo[3.2.1]octane] here?
Answer: 717 nM

Question: What about the IC50 [2] of the same molecule?
Answer: 717 nM

Question: For `COc1nc(Br)cn1-c1csc(N2[C@@H]3CC[C@H]2COC3)n1` [Example 23, (1S,5R)-8-[4-(4-bromo-2-methoxy-imidazol-1-yl)thiazol-2-yl]-3-oxa-8-azabicyclo[3.2.1]octane], which IC50 ([1]; LNCaP eGFP cell line) is on record?
Answer: 270 nM

Question: What about the microsomal CLint at 2 μM (in vitro) of the same molecule?
Answer: 22 µL/min/mg

Question: Which IC50 ([1]; LNCaP eGFP cell line) does the source give for `Clc1c(Br)ncn1-c1csc(N2C[C@H]3CC[C@@H](C2)O3)n1` [Example 24, (1R,5S)-3-[4-(4-bromo-5-chloro-imidazol-1-yl)thiazol-2-yl]-8-oxa-3-azabicyclo[3.2.1]octane] here?
Answer: 700 nM

Question: And the “metabolic stability in human hepatic microsomal test system (in words)” value (“metabolic stability” below) (in vitro)?
Answer: high metabolic stability

Question: And the microsomal CLint at 2 μM (in vitro)?
Answer: 13 µL/min/mg

Question: With `OCc1nc(Br)c(Br)n1-c1csc(N2[C@@H]3CC[C@H]2COC3)n1` [Example 36, [4,5-dibromo-1-[2-[(1R,5S)-3-oxa-8-azabicyclo[3.2.1]octan-8-yl]thiazol-4-yl]imidazol-2-yl]methanol] as the molecule, how does the IC50 ([1]; LNCaP eGFP cell line) read?
Answer: 2990 nM

Question: And the “metabolic stability” value (in vitro)?
Answer: high metabolic stability

Question: What about the microsomal CLint at 2 μM (in vitro) of the same molecule?
Answer: 10 µL/min/mg

Question: For `CCC1(CC)CN(c2nc(-n3cc(Br)nc3Br)cs2)CCO1` [Example 37, 4-[4-(2,4-dibromoimidazol-1-yl)thiazol-2-yl]-2,2-diethyl-morpholine], which inhibition at 1 µM [1] is on record?
Answer: 33%

Question: And the microsomal CLint at 2 μM (in vitro)?
Answer: 129 µL/min/mg

Question: Which results are given for `FC(F)(F)C1CN(c2nc(-n3cc(Br)nc3Br)cs2)CCO1` (centres unmarked) [Example 38, 4-[4-(2,4-dibromoimidazol-1-yl)thiazol-2-yl]-2-(trifluoromethyl)morpholine]?
Answer: IC50 ([1]; LNCaP eGFP cell line): 1950 nM; microsomal CLint at 2 μM (in vitro): 44 µL/min/mg

Question: For `Brc1cn(-c2csc(N3CCOC4(COC4)C3)n2)c(Br)n1` [Example 39, 8-[4-(2,4-dibromoimidazol-1-yl)thiazol-2-yl]-2,5-dioxa-8-azaspiro[3.5]nonane], which inhibition at 1 µM [1] is on record?
Answer: 34%

Question: And the microsomal CLint at 2 μM (in vitro)?
Answer: 18 µL/min/mg

Question: What does the source list for `Cc1c(Br)ncn1-c1csc(N2CCOCC2)n1` [Example 53, 4-[4-(4-bromo-5-methyl-imidazol-1-yl)thiazol-2-yl]morpholine]?
Answer: inhibition at 1 µM [1]: 44%; microsomal CLint at 2 μM (in vitro): 72 µL/min/mg

Question: Which inhibition at 1 µM [1] does the source give for `Cc1ncn(-c2csc(N3CCOCC3)n2)c1Br` [Example 54, 4-[4-(5-bromo-4-methyl-imidazol-1-yl)thiazol-2-yl]morpholine] here?
Answer: 28%

Question: What about the microsomal CLint at 2 μM (in vitro) of the same molecule?
Answer: 224 µL/min/mg

Question: Which inhibition at 1 µM [1] does the source give for `c1cn(-c2csc(N3CCOCC3)n2)cn1` [Example 55, 4-(4-imidazol-1-ylthiazol-2-yl)morpholine] here?
Answer: 17%

Question: And the “metabolic stability” value (in vitro)?
Answer: high metabolic stability

Question: What about the microsomal CLint at 2 μM (in vitro) of the same molecule?
Answer: 10 µL/min/mg

Question: For `CCOC(=O)c1nc(Br)c(Br)n1-c1csc(N2CCOCC2)n1` [Example 56, ethyl 4,5-dibromo-1-(2-morpholinothiazol-4-yl)imidazole-2-carboxylate], which inhibition at 1 µM [1] is on record?
Answer: 12%

Question: And the microsomal CLint at 2 μM (in vitro)?
Answer: 33 µL/min/mg

Question: For `OCc1nc(Br)c(Br)n1-c1csc(N2CCOCC2)n1` [Example 57, [4,5-dibromo-1-(2-morpholinothiazol-4-yl)imidazol-2-yl]methanol], which IC50 ([1]; LNCaP eGFP cell line) is on record?
Answer: 6450 nM

Question: What about the “metabolic stability” value (in vitro) of the same molecule?
Answer: high metabolic stability

Question: And the microsomal CLint at 2 μM (in vitro)?
Answer: 10 µL/min/mg

Question: Which inhibition at 1 µM [1] does the source give for `N#Cc1cn(-c2csc(N3CCOCC3)n2)cn1` [Example 58, 1-(2-morpholinothiazol-4-yl)imidazole-4-carbonitrile] here?
Answer: 2%

Question: And the microsomal CLint at 2 μM (in vitro)?
Answer: 23 µL/min/mg

Question: For `Brc1nccn1-c1csc(N2CCOCC2)n1` [Example 59, 4-[4-(2-bromoimidazol-1-yl)thiazol-2-yl]morpholine], which inhibition at 1 µM [1] is on record?
Answer: 35%

Question: And the microsomal CLint at 2 μM (in vitro)?
Answer: 42 µL/min/mg

Question: Which results are given for `Cc1nc(-c2ccccc2)cn1-c1csc(N2CCOCC2)n1` [Example 60, 4-[4-(2-methyl-4-phenyl-imidazol-1-yl)thiazol-2-yl]morpholine]?
Answer: inhibition at 1 µM [1]: 3%; microsomal CLint at 2 μM (in vitro): 44 µL/min/mg

Question: Which inhibition at 1 µM [1] does the source give for `OCc1c(Br)ncn1-c1csc(N2CCOCC2)n1` [Example 61, [5-bromo-3-(2-morpholinothiazol-4-yl)imidazol-4-yl]methanol] here?
Answer: 31%

Question: And the “metabolic stability” value (in vitro)?
Answer: high metabolic stability

Question: And the microsomal CLint at 2 μM (in vitro)?
Answer: 15 µL/min/mg

Question: For `OCc1ncn(-c2csc(N3CCOCC3)n2)c1Br` [Example 62, [5-bromo-1-(2-morpholinothiazol-4-yl)imidazol-4-yl]methanol], which “eGFP IC50” value ([1]; LNCaP eGFP cell line) is on record?
Answer: inact.

Question: What about the microsomal CLint at 2 μM (in vitro) of the same molecule?
Answer: 19 µL/min/mg
